This note sets out measurements from patent US12514943B2 (priority 2020, dated 2026).

In this test the test system is Aspergillus brasiliensis (ATCC 16404). In words: Evaluation test for microbicidal effect, suspension test EN 13624:2013 (clean conditions). The conditions noted are these: equal molar amount instead of glycine in the formula of Example 1-1. It counts as cell-based.
For `CC(=O)O` [acetic acid], the “enhancement of the microbicidal activity of the acidic oxidant of peracetic acid and hydrogen peroxide (in words)” value (shortened to “enhancement”) is listed as “could not enhance the microbicidal activity”.

For `O=P([O-])([O-])O.[K+].[K+]` [dipotassium hydrogen phosphate], the “enhancement” value is reported as “could not enhance the microbicidal activity”.

As to `O=P([O-])([O-])[O-].[Na+].[Na+].[Na+]` [trisodium phosphate], the “enhancement” value is “could not enhance the microbicidal activity”.
